Data as given in PubChem BioAssay (NCI).
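Protocol summary: plate cells (96-well), add compound at 5 concentrations, incubate 48 h, interpolate endpoints linearly. Here, GI50 denotes the concentration required for 50% inhibition of growth. The concentration for full growth arrest is given as TGI.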

Columns and labels:
Test in all cases: NCI-60 cell line screen, 48 h
A498 renal = test system: A498 renal
ACHN renal = test system: ACHN renal
CAKI-1 renal = test system: CAKI-1 renal
HS 578T breast = test system: HS 578T breast
IGROV1 ovarian = test system: IGROV1 ovarian
KM12 colon = test system: KM12 colon
LOX IMVI melanoma = test system: LOX IMVI melanoma
MOLT-4 leukemia = test system: MOLT-4 leukemia
NCI-H226 lung = test system: NCI-H226 lung
RXF 393 renal = test system: RXF 393 renal
SN12C renal = test system: SN12C renal
SNB-19 CNS = test system: SNB-19 CNS
DU-145 prostate = test system: DU-145 prostate
SK-MEL-5 melanoma = test system: SK-MEL-5 melanoma

Row | SMILES | TGI (A498 renal) [µM] | TGI (ACHN renal) [µM] | TGI (CAKI-1 renal) [µM] | TGI (HS 578T breast) [µM] | TGI (IGROV1 ovarian) [µM] | TGI (KM12 colon) [µM] | TGI (LOX IMVI melanoma) [µM] | TGI (MOLT-4 leukemia) [µM] | TGI (NCI-H226 lung) [µM] | TGI (RXF 393 renal) [µM] | TGI (SN12C renal) [µM] | TGI (SNB-19 CNS) [µM] | TGI (DU-145 prostate) [µM] | TGI (SK-MEL-5 melanoma) [µM] | GI50 (ACHN renal) [µM] | GI50 (CAKI-1 renal) [µM] | GI50 (DU-145 prostate) [µM] | GI50 (KM12 colon) [µM] | GI50 (RXF 393 renal) [µM] | GI50 (SK-MEL-5 melanoma) [µM]
1 | CC(=O)OCC1OC(OCCCCCCO)C(OC(C)=O)C(OC(C)=O)C1OC(C)=O (stereo not drawn) | > 100 | > 100 | > 100 | > 100 | > 100 | > 100 | > 100 | > 100 | > 100 | > 100 | > 100 | > 100 | – | – | – | – | – | – | – | –
2 | CC1(C)C(=O)c2ccccc2OC1N1CCN(C2Oc3ccccc3C(=O)C2(C)C)CC1 (stereo not drawn) | > 100 | > 100 | > 100 | > 100 | > 100 | > 100 | > 100 | > 100 | > 100 | > 100 | > 100 | > 100 | > 100 | > 100 | – | – | – | – | – | –
3 | Cc1cn(C2CC(N)C(C(=O)NCC(=O)O)O2)c(=O)[nH]c1=O (stereo not drawn) | > 100 | > 100 | > 100 | > 100 | > 100 | > 100 | > 100 | > 100 | > 100 | > 100 | > 100 | > 100 | > 100 | > 100 | – | – | – | – | – | –
4 | COc1ccc(-c2ccc(-c3ccc(C(=N)N)nc3)s2)cc1Cl | – | 3.15 | 3.12 | – | – | 3.32 | – | – | – | 3.23 | – | – | 3.15 | 3.32 | 1.77 | 1.74 | 1.77 | 1.81 | 1.76 | 1.82
5 | C=CCN1C(=O)/C(=C/c2ccco2)N=C1SC1OC(COC(C)=O)C(OC(C)=O)C(OC(C)=O)C1OC(C)=O (stereo not drawn) | > 100 | > 100 | > 100 | – | > 100 | > 100 | > 100 | > 100 | > 100 | > 100 | – | – | > 100 | > 100 | – | – | – | – | – | –
